Measured values as given in patent US10342774B2, “Topical pharmaceutical composition of acitretin” (priority 2013, dated 2019).
≈ marks a conversion by molar mass, not a printed value.

Assay: physchem
Conditions: 25 °C, organic solvent or mixture, thermodynamic from solid
Procedure: The saturation solubility of acitretin was determined by adding an excess amount of acitretin in a conical flask containing a mixture of diethylene glycol monoethyl ether, dimethyl isosorbide, and polysorbate 80, present in a w/w ratio of 3.3:24.1:1. The mixture was kept in a shaking water bath for 24 hours at 25° C.

## COc1cc(C)c(/C=C/C(C)=C/C=C/C(C)=C/C(=O)O)c(C)c1C [acitretin, all-trans-9-(4-methoxy-2,3,6-trimethylphenyl)-3,7-dimethyl-2,4,6,8-nonatetraenoic acid]
  solubility at 24 h: 2500 µg/mL (≈ 7.66 mM)
